In US9974306B2, “Herbicidal combinations for tolerant soybean cultures” (priority 2012, dated 2018):

Columns and labels:
GLXMA GM_W336 = test: Post-emergence greenhouse treatment, visual rating of effect on W336 transgenic (HPPD inhibitor tolerant) soybean; format: in vivo; conditions: for Effect (%): GLXMA GM_W336
Method: (§1) The soybeans were grown under the same conditions as described above. The following three varieties were used in the tests:
(§2) 1) W336—Transgenic soybean plants comprising a chimeric gene encoding a W336 mutant HPPD protein of Pseudomonas fluorescens (U.S. Pat. No. 6,245,968) fused to the optimized transit peptide for chloroplast targeting (U.S. Pat. No. 5,510,471), and under the control of the 35S CaMV promoter (Odell et al., 1985, Nature 313: 810-812) fused to the 5′ enhancer sequence of TEV (Carrington and Freed, 1990, J. Virol. 64: 1590-1597), with as 3′ transcript termination and polyadenylation region that of the CaMV 35S gene (Sanfacon et al., 1991, Genes & Development 5:141-149), abbreviated as “W336 soybean plants” herein. 2) MERLIN—conventional 3) PROTINA—conventional
(§3) Two sets of soybeans reaching different growth stages at application time were prepared: one up to growth stage BBCH 11 (1-2 leaf stage) and the other up to BBCH 13 (3-4 leaf stage). Both soybean sets were treated at the same time (together with the weeds) but they were evaluated separately.
(§4) The applications were performed by post emergence treatments on the planted pots using a spray volume of 300 L water per hectare. The herbicides were applied alone and in combination as in the tables below.
(§5) The trial was conducted in the greenhouse ensuring optimal growing conditions.
(§6) The herbicidal effects were assessed 14 and 24 days following application by visual ratings comparing treated and untreated plants (0%=no effect to 100%=complete die-off).
(§7) The visual ratings are used to calculate interactions between treatments alone and combination treatments according to S. R. Colby, Weeds 15, pages 20 to 22 (1967).

GLXMA Protina = test: Post-emergence greenhouse treatment, visual rating of effect on conventional soybean PROTINA; format: in vivo; conditions: for Effect (%): GLXMA Protina
Method: as §1, §2, §3, §4, §5, §6, §7

GLXMA Merlin = test: Post-emergence greenhouse treatment, visual rating of effect on conventional soybean MERLIN; format: in vivo; conditions: for Effect (%): GLXMA Merlin, assessment 24 d
Method: as §1, §2, §3, §4, §5, §6, §7

BRAPP = test: Post-emergence greenhouse treatment, visual rating of herbicidal effect; format: in vivo, Brachiaria platyphylla; conditions: for Effect (%): BRAPP
Method: (§8) Seeds of grass and broadleaf weeds were sown in pots (diameter: 8 cm) filled with a sandy loam soil. For the herbicide post-emergent treatment, the weeds were grown under optimal conditions up to a growth stage of BBCH 11 (1-2 leaf stage) to 14 (3-4 leaf stage) depending on species. The following weeds were used:
as §4, §5, §6, §7

SETFA = test: as above; format: in vivo, Setaria faberi; conditions: 1-2 leaf
Method: as §8, §4, §5, §6, §7

SETVI = test: as above; format: in vivo, Setaria viridis; conditions: 1-2 leaf; for Effect: 24 d; for Effect (%): SETVI, assessment 24 d
Method: as §8, §4, §5, §6, §7

SORHA = test: as above; format: in vivo, Sorghum halepense
Method: as §8, §4, §5, §6, §7

BIDPI = test: as above; format: in vivo, Bidens pilosa
Method: as §8, §4, §5, §6, §7

EPHHL = test: as above; format: in vivo, Euphorbia heterophylla
Method: as §8, §4, §5, §6, §7

PHBPU = test: as above; format: in vivo, Pharbitis purpurea
Method: as §8, §4, §5, §6, §7

POLCO = test: as above; format: in vivo, Polygonum convolvulus; conditions: for Effect (%): POLCO, (B1) alone 40 g a.i./ha
Method: as §8, §4, §5, §6, §7

[1] = 1-2 leaf, 14 d, 20 g a.i./ha alone
[2] = 1-2 leaf, 24 d, 20 g a.i./ha alone
[3] = 1-2 leaf, 24 d, 40 g a.i./ha alone
[4] = 1-2 leaf, 24 d, 80 g a.i./ha alone
[5] = 3-4 leaf, 14 d, 20 g a.i./ha alone
[6] = 3-4 leaf, 14 d, 80 g a.i./ha alone
[7] = 1-2 leaf, assessment 24 d, (B1) alone 40 g a.i./ha
[8] = 1-2 leaf, assessment 24 d, (B1) alone 80 g a.i./ha
[9] = 3-4 leaf, assessment 14 d, (B1) alone 20 g a.i./ha
[10] = 3-4 leaf, assessment 14 d, (B1) alone 40 g a.i./ha

Question: With CSc1nnc(C(C)(C)C)c(=O)n1N [(B1), 4-amino-6-tert-butyl-4,5-dihydro-3-methylthio-1,2,4-triazin-5-one] as the molecule, how does the Effect (GLXMA GM_W336; [1]) read?
Answer: 20%

Question: What about the Effect (GLXMA GM_W336; [2]) of the same molecule?
Answer: 10%

Question: What about the Effect (GLXMA GM_W336; [3]) of the same molecule?
Answer: 10%

Question: What about the Effect (GLXMA GM_W336; [4]) of the same molecule?
Answer: 30%

Question: And the Effect (GLXMA GM_W336; 1-2 leaf, 14 d, 80 g a.i./ha)?
Answer: 25%

Question: And the Effect (GLXMA GM_W336; 1-2 leaf, 24 d, 40 g a.i./ha)?
Answer: 10%

Question: What about the Effect (GLXMA GM_W336; 1-2 leaf, 24 d, 80 g a.i./ha) of the same molecule?
Answer: 30%

Question: What about the Effect (GLXMA GM_W336; [5]) of the same molecule?
Answer: 35%

Question: And the Effect (GLXMA GM_W336; [6])?
Answer: 35%

Question: And the Effect (GLXMA GM_W336; 3-4 leaf, 14 d, 20 g a.i./ha)?
Answer: 35%

Question: And the Effect (GLXMA GM_W336; 3-4 leaf, 14 d, 40 g a.i./ha)?
Answer: 35%

Question: What about the Effect (GLXMA GM_W336; 3-4 leaf, 24 d, 20 g a.i./ha) of the same molecule?
Answer: 30%

Question: What about the “Effect (%)” value (GLXMA GM_W336; [7]) of the same molecule?
Answer: 10%

Question: What about the “Effect (%)” value (GLXMA GM_W336; [8]) of the same molecule?
Answer: 30%

Question: What about the “Effect (%)” value (GLXMA GM_W336; [9]) of the same molecule?
Answer: 35%

Question: What about the “Effect (%)” value (GLXMA GM_W336; [10]) of the same molecule?
Answer: 35%

Question: And the Effect (GLXMA Protina; [1])?
Answer: 20%

Question: And the Effect (GLXMA Protina; [2])?
Answer: 15%

Question: What about the Effect (GLXMA Protina; [3]) of the same molecule?
Answer: 15%

Question: And the Effect (GLXMA Protina; [4])?
Answer: 40%

Question: And the Effect (GLXMA Protina; 1-2 leaf, 14 d, 80 g a.i./ha)?
Answer: 40%

Question: And the Effect (GLXMA Protina; 1-2 leaf, 24 d, 80 g a.i./ha)?
Answer: 40%

Question: And the Effect (GLXMA Protina; [5])?
Answer: 25%

Question: What about the Effect (GLXMA Protina; 3-4 leaf, 14 d, 20 g a.i./ha) of the same molecule?
Answer: 25%

Question: And the Effect (GLXMA Protina; 3-4 leaf, 14 d, 40 g a.i./ha)?
Answer: 35%

Question: And the Effect (GLXMA Protina; 3-4 leaf, 24 d, 20 g a.i./ha)?
Answer: 35%

Question: What about the “Effect (%)” value (GLXMA Protina; [7]) of the same molecule?
Answer: 15%

Question: What about the “Effect (%)” value (GLXMA Protina; [9]) of the same molecule?
Answer: 25%

Question: And the “Effect (%)” value (GLXMA Protina; [10])?
Answer: 35%

Question: And the Effect (GLXMA Merlin; 1-2 leaf, 24 d, 40 g a.i./ha)?
Answer: 0%

Question: What about the Effect (GLXMA Merlin; [6]) of the same molecule?
Answer: 50%

Question: What about the Effect (GLXMA Merlin; 3-4 leaf, 24 d, 20 g a.i./ha) of the same molecule?
Answer: 40%

Question: What about the “Effect (%)” value (GLXMA Merlin; 1-2 leaf, (B1) alone 40 g a.i./ha) of the same molecule?
Answer: 0%

Question: What about the “Effect (%)” value (GLXMA Merlin; 1-2 leaf, (B1) alone 80 g a.i./ha) of the same molecule?
Answer: 10%

Question: And the Effect (BRAPP; [1])?
Answer: 15%

Question: What about the Effect (BRAPP; [2]) of the same molecule?
Answer: 10%

Question: What about the Effect (BRAPP; [3]) of the same molecule?
Answer: 10%

Question: And the Effect (BRAPP; 3-4 leaf, 14 d, 20 g a.i./ha)?
Answer: 15%

Question: What about the Effect (BRAPP; 3-4 leaf, 14 d, 40 g a.i./ha) of the same molecule?
Answer: 45%

Question: What about the Effect (BRAPP; 3-4 leaf, 24 d, 20 g a.i./ha) of the same molecule?
Answer: 10%

Question: What about the “Effect (%)” value (BRAPP; [7]) of the same molecule?
Answer: 10%

Question: What about the “Effect (%)” value (BRAPP; [8]) of the same molecule?
Answer: 35%

Question: And the “Effect (%)” value (BRAPP; [9])?
Answer: 15%

Question: What about the “Effect (%)” value (BRAPP; [10]) of the same molecule?
Answer: 45%

Question: And the Effect (SETFA; 14 d, 80 g a.i./ha)?
Answer: 30%

Question: What about the Effect (SETFA; 24 d, 40 g a.i./ha) of the same molecule?
Answer: 10%

Question: What about the “Effect (%)” value (SETFA; SETFA, assessment 24 d, (B1) alone 40 g a.i./ha) of the same molecule?
Answer: 10%

Question: And the Effect (SETVI; 80 g a.i./ha alone)?
Answer: 10%

Question: What about the Effect (SETVI; 80 g a.i./ha) of the same molecule?
Answer: 10%

Question: And the “Effect (%)” value (SETVI; (B1) alone 40 g a.i./ha)?
Answer: 50%

Question: And the “Effect (%)” value (SETVI; (B1) alone 80 g a.i./ha)?
Answer: 10%

Question: And the Effect (SORHA; [4])?
Answer: 10%

Question: And the Effect (SORHA; 1-2 leaf, 14 d, 80 g a.i./ha)?
Answer: 20%

Question: What about the Effect (SORHA; 1-2 leaf, 24 d, 80 g a.i./ha) of the same molecule?
Answer: 10%

Question: And the Effect (SORHA; [5])?
Answer: 20%

Question: What about the Effect (SORHA; [6]) of the same molecule?
Answer: 20%

Question: And the Effect (SORHA; 3-4 leaf, 14 d, 20 g a.i./ha)?
Answer: 20%

Question: What about the Effect (SORHA; 3-4 leaf, 24 d, 20 g a.i./ha) of the same molecule?
Answer: 0%

Question: And the “Effect (%)” value (SORHA; SORHA, 1-2 leaf, assessment 24 d, (B1) alone 40 g a.i./ha)?
Answer: 10%

Question: What about the Effect (BIDPI; [2]) of the same molecule?
Answer: 5%

Question: What about the Effect (BIDPI; [3]) of the same molecule?
Answer: 45%

Question: What about the Effect (BIDPI; 3-4 leaf, 14 d, 20 g a.i./ha) of the same molecule?
Answer: 40%

Question: And the Effect (BIDPI; 3-4 leaf, 24 d, 20 g a.i./ha)?
Answer: 5%

Question: And the “Effect (%)” value (BIDPI; BIDPI, 3-4 leaf, assessment 14 d, (B1) alone 20 g a.i./ha)?
Answer: 40%

Question: What about the Effect (EPHHL; [1]) of the same molecule?
Answer: 45%

Question: What about the Effect (EPHHL; [2]) of the same molecule?
Answer: 20%

Question: And the Effect (EPHHL; [4])?
Answer: 65%

Question: And the Effect (EPHHL; 3-4 leaf, 24 d, 20 g a.i./ha)?
Answer: 20%

Question: What about the Effect (PHBPU; [2]) of the same molecule?
Answer: 0%

Question: And the Effect (PHBPU; 1-2 leaf, 24 d, 40 g a.i./ha)?
Answer: 0%

Question: What about the Effect (PHBPU; 3-4 leaf, 14 d, 40 g a.i./ha) of the same molecule?
Answer: 10%

Question: What about the Effect (POLCO; [4]) of the same molecule?
Answer: 20%

Question: What about the Effect (POLCO; [5]) of the same molecule?
Answer: 10%

Question: What about the Effect (POLCO; [6]) of the same molecule?
Answer: 40%

Question: What about the Effect (POLCO; 3-4 leaf, 14 d, 20 g a.i./ha) of the same molecule?
Answer: 10%

Question: What about the Effect (POLCO; 3-4 leaf, 24 d, 20 g a.i./ha) of the same molecule?
Answer: 10%

Question: And the “Effect (%)” value (POLCO; 1-2 leaf, assessment 24 d)?
Answer: 15%

Question: What about the “Effect (%)” value (POLCO; 3-4 leaf, assessment 14 d) of the same molecule?
Answer: 40%
